In article PMC7140522, “The Pyrazolo[3,4-d]pyrimidine Derivative, SCO-201, Reverses Multidrug Resistance Mediated by ABCG2/BCRP” (Cells, 2020):

Tests used:
[1] = test system: CYP3A; experiment: CYP induction in human hepatocytes, CYP3A enzyme activity; assay type: in vitro ADME
Experimental: The following procedure was carried out to test whether SCO-201 induces CYP1A, CYP2B6, and CYP3A activities in human hepatocytes. The procedure was designed in accordance with the FDA Guidance for Industry on Drug Interaction Studies (2006). Male and female human hepatocytes were thawed and plated into collagen-coated 96-well plates in serum-containing medium (plating medium) at a density of 0.7 × 10^6 viable cells/mL. The hepatocytes were cultured in a humidified incubator at 37 °C and 5% CO2. At 4 h post plating, human hepatocytes were washed once with fresh plating medium, followed by overnight incubation. At 24 h after plating, the plating medium was removed, and the hepatocytes were overlaid with extracellular matrix (ECM) (Sigma) or Matrigel (BD) in the serum-free medium (incubation medium), and then incubated for another 24 h. Incubation medium with 0.1% DMSO was used as the negative control. After the 2-day recovery period, the hepatocytes were treated with SCO-201 or a known inducer (Table S3) in the incubation medium on day 3 and day 4. The known inducer was tested as the positive control. On day 5, the medium was removed, and the cells were incubated with the respective CYP substrate in Krebs–Henseleit buffer (pH 7.4) containing 3 mM salicylamide for 30 min. The reaction was terminated by transferring the incubation mixture to an equal volume of acetonitrile/methanol mixture (1/1, v/v). Samples were mixed and centrifuged. Supernatants are used for HPLC-MS/MS analysis of the corresponding metabolite. Peak areas corresponding to the metabolite were recorded. The assay was rendered valid if enzyme activity with the positive control was at least twofold greater than negative control.
Cells 2020, 9, x FOR PEER REVIEW 9 of 9
Substrate (conc.) Metabolite Assay
Ethoxyresorufin (2 µM) Resorufin CYP1A
Bupropion (200 µM) Hydrozyl-bupropion CYP2B6
Midazolam (10 µM) 1-hydroxymidazolam CYP3A
139 Table S3: In vitro DMPK analysis: CYP induction.
140 were applied as inducers of the investigated CYPs.
144 References for supplementary materials
146 1. […]

[2] = molecular target: CYP1A (Homo sapiens, UniProt P05177)
[3] = molecular target: T1, BCRP (Homo sapiens, UniProt Q9UNQ0); experiment: Cellular dye efflux assay (Hoechst 33342) in HT29SN-38-RES cells; assay type: cell-based; design: endogenous in cells; host or cells: HT29 SN-38-RES (drug-selected HT29)
T1 sequence (Q9UNQ0 1-655): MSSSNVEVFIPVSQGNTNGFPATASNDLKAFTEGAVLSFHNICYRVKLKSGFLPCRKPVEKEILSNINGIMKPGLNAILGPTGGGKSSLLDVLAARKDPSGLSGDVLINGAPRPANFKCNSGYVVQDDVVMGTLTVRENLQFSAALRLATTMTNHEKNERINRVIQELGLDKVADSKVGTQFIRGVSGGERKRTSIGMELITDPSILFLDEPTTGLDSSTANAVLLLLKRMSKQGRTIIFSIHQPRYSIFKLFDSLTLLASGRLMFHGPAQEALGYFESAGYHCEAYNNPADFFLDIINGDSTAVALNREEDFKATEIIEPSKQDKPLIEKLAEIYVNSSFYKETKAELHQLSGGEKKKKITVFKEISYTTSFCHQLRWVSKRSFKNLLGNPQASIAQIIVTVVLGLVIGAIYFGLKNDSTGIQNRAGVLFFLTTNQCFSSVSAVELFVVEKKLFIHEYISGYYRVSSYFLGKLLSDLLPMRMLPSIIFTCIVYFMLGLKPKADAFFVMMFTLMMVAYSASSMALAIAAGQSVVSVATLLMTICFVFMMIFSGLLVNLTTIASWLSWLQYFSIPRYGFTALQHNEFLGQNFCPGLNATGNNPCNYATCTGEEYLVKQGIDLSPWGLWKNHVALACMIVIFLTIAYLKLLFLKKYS
Experimental: HT29 cells were seeded either into a 96-well Nunclon plate (Thermo Fisher Scientific, Roskilde, Denmark) at a density of 6000 cells/well (for Celigo Imaging Cytometry) or into a Nunc 6-well plate at a density of 150,000 cells/well (for fluorescence microscopy). […] Then, the cells were washed with ice-cold PBS to remove excess Hoechst dye. Drugs were added again and the cells were incubated for 1h at 37 °C. The plates were analyzed with either fluorescence microscopy (6-well plates) or imaging cytometry (96-well plates). For the Celigo Imaging Cytometry (Lawrence, MA, USA), the application “Target 1 + 2 (merge)” was used, and the mean fluorescence intensities were measured and data presented as percentage of parental control.

[4] = molecular target: T1, BCRP; experiment: […] ATPase assay with recombinant BCRP membranes; assay type: biochemical; design: purchased Solvo Biotechnology (via Sigma-Aldrich/Merck) SB-BCRP-M
Experimental: After incubation with test compounds, MgATP was added to each well and incubated at 37 °C for 10 min. The ATPase reaction was stopped by the addition of 1x Developer solution at room temperature (RT). Two minutes after, 100 µL Blocker solution was added and the plate was incubated for 30 min at 37 °C for 30 min. The optical densities were measured at 620 nm using a PowerWave X Microplate spectrophotometer (BioTek, Bad Friedrichshall, Germany).

[5] = design: method as in PMID 26260222; conditions: mice; cited from earlier work

CYP1A, sequence (P05177 whole entry): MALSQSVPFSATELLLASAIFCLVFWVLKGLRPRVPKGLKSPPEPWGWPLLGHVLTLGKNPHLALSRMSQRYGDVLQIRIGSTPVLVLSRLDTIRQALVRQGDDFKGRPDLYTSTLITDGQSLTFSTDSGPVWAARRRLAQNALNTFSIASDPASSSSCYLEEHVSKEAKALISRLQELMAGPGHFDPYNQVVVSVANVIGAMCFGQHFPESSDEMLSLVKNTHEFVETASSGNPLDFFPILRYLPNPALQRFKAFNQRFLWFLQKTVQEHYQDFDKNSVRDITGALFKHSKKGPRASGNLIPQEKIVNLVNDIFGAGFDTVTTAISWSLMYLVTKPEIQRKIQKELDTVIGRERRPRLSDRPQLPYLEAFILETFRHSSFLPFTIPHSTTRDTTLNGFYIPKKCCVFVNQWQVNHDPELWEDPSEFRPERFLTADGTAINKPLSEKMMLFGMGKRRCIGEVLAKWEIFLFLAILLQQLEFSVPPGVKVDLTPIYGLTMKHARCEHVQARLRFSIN

## Nc1nc(-c2ccccc2)nc2[nH]nc(Nc3ccc(C(F)(F)F)cc3)c12 [SCO-201]
[1]; Donor 1
  Mean Fold Enzyme Activity Induction at 1 × 10^−4 M: 1.3
[1]; Donor 2
  Mean Fold Enzyme Activity Induction at 1 × 10^−4 M: 2.0
[1]; Donor 3
  Mean Fold Enzyme Activity Induction at 1 × 10^−4 M: 0.4
[2]
  IC50: > 100000 nM
[3]; fluorescence microscopy and imaging cytometry
  Hoechst accumulation in resistant cells: accumulated to the level of the parental control cells
[3]; imaging cytometry, read-out: IC50, accumulation of Hoechst dye
  IC50: 450 nM
[4]; SCO-201 added to sulfasalazine-stimulated BCRP
  ATPase activity of BCRP, sulfasalazine-stimulated: decreased in a dose-dependent manner
[4]; in the absence of sulfasalazine
  ATPase activity of BCRP, basal: decreased dose-dependently
[4]; in the presence of 0.5 µM or 1.5 µM SCO-201
  SN-38-stimulated ATPase activity of BCRP: shifted downwards
[5]
  oral activity: orally active
